Results as given in PubChem BioAssay AID330 (DTP/NCI, 2004).
Where “and” joins values, the source holds several entries; their conditions need not be identical. Equal entries are not always repeated. Toxic doses and inconclusive results are not listed.

Tested on: P388 leukemia ip, CD2F1 mice, survival T/C
Assay: NCI In Vivo Anticancer Drug Screen. Data for tumor model P388 Leukemia (intraperitoneal) in CD2F1 (CDF1) mice
Settings: endpoint: median survival time, higher = longer survival
Summary of the method: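 Mice carrying the transplanted tumor received test compound or vehicle. Survival was recorded in each group, and the value is the treated-group measurement divided by that of the vehicle-treated control group.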

[1] = dose: 50.0 mg/kg/injection, schedule: Q01DX005 (ip), vehicle: Klucel (hydroxypropylcellulose) (HPC)
[2] = dose: 100.0 mg/kg/injection, schedule: Q01DX001 (ip), vehicle: saline with Tween-80
[3] = dose: 200.0 mg/kg/injection, schedule: Q01DX001 (ip), vehicle: saline with Tween-80
[4] = dose: 400.0 mg/kg/injection, schedule: Q01DX001 (ip), vehicle: saline with Tween-80
[5] = dose: 60.0 mg/kg/injection, schedule: Q01DX005 (ip), vehicle: saline with Tween-80
[6] = dose: 120.0 mg/kg/injection, schedule: Q01DX005 (ip), vehicle: saline with Tween-80
[7] = dose: 240.0 mg/kg/injection, schedule: Q01DX005 (ip), vehicle: saline with Tween-80
[8] = dose: 50.0 mg/kg/injection, schedule: Q01DX005 (ip), vehicle: saline with Tween-80
[9] = dose: 100.0 mg/kg/injection, schedule: Q01DX005 (ip), vehicle: saline with Tween-80
[10] = dose: 25.0 mg/kg/injection, schedule: Q04DX003 (ip), vehicle: saline with Tween-80
[11] = dose: 50.0 mg/kg/injection, schedule: Q01DX009 (ip), vehicle: saline with Tween-80
[12] = dose: 50.0 mg/kg/injection, schedule: Q04DX003 (ip), vehicle: saline with Tween-80
[13] = dose: 100.0 mg/kg/injection, schedule: Q04DX002 (ip), vehicle: saline with Tween-80
[14] = dose: 100.0 mg/kg/injection, schedule: Q01DX009 (ip), vehicle: saline with Tween-80
[15] = dose: 200.0 mg/kg/injection, schedule: Q01DX009 (ip), vehicle: saline with Tween-80
[16] = dose: 50.0 mg/kg/injection, schedule: Q01DX009 (ip), vehicle: Klucel (hydroxypropylcellulose) (HPC)
[17] = dose: 100.0 mg/kg/injection, schedule: Q01DX009 (ip), vehicle: Klucel (hydroxypropylcellulose) (HPC)
[18] = dose: 200.0 mg/kg/injection, schedule: Q01DX009 (ip), vehicle: Klucel (hydroxypropylcellulose) (HPC)
[19] = dose: 100.0 mg/kg/injection, schedule: Q04DX003 (ip), vehicle: saline with Tween-80
[20] = dose: 50.0 mg/kg/injection, schedule: Q01DX005 (ip), vehicle: water
[21] = dose: 100.0 mg/kg/injection, schedule: Q01DX005 (ip), vehicle: water
[22] = dose: 200.0 mg/kg/injection, schedule: Q01DX005 (ip), vehicle: water

SMILES: O=C1C(=O)N(c2ccccc2)C(=O)N1CCN1C(=O)C(=O)N(c2ccccc2)C1=O
- T/C (dose: 3.75 mg/kg/injection, schedule: Q01DX005 (ip), vehicle: saline with Tween-80): 100 % of control
- T/C (dose: 7.5 mg/kg/injection, schedule: Q01DX005 (ip), vehicle: saline with Tween-80): 90 % of control
- T/C (dose: 15.0 mg/kg/injection, schedule: Q01DX005 (ip), vehicle: saline with Tween-80): 95 % of control

SMILES: COc1cccc2c1C(CCCC(=O)O)CCC2 (stereo unspecified)
- T/C [1]: 101 % of control
- T/C (dose: 100.0 mg/kg/injection, schedule: Q01DX005 (ip), vehicle: Klucel (hydroxypropylcellulose) (HPC)): 104 % of control
- T/C (dose: 200.0 mg/kg/injection, schedule: Q01DX005 (ip), vehicle: Klucel (hydroxypropylcellulose) (HPC)): 104 % of control

SMILES: Cc1ccc2ccccc2c1NS(=O)(=O)c1ccccc1
- T/C [2]: 95 % of control
- T/C [3]: 95 % of control
- T/C [4]: 91 % of control

SMILES: CC(=O)N/N=C/c1ccccc1[N+](=O)[O-]
- T/C (dose: 12.5 mg/kg/injection, schedule: Q01DX009 (ip), vehicle: other): 97 % of control
- T/C (dose: 25.0 mg/kg/injection, schedule: Q01DX009 (ip), vehicle: other): 96 % of control
- T/C (dose: 50.0 mg/kg/injection, schedule: Q01DX009 (ip), vehicle: other): 98 % of control
- T/C (dose: 100.0 mg/kg/injection, schedule: Q01DX009 (ip), vehicle: other): 107 % of control

SMILES: COC(=O)Nc1nc2ccc(C3c4c(n[nH]c4C)CC(C)(O)C3C(C)=O)cc2[nH]1 (stereo unspecified)
- T/C [5]: 98 % of control
- T/C [6]: 101 % of control
- T/C [7]: 101 % of control

SMILES: [Cl][Zn][Cl].c1ccc2[nH]cnc2c1.c1ccc2[nH]cnc2c1
- T/C (dose: 12.5 mg/kg/injection, schedule: Q01DX005 (ip), vehicle: Klucel (hydroxypropylcellulose) (HPC)): 100 % of control
- T/C (dose: 25.0 mg/kg/injection, schedule: Q01DX005 (ip), vehicle: Klucel (hydroxypropylcellulose) (HPC)): 108 % of control
- T/C [1]: 100 % of control

SMILES: c1ccc(-c2nc3ccccc3c3ccccc23)cc1
- T/C [8]: 101 % of control
- T/C [9]: 113 % of control
- T/C (dose: 200.0 mg/kg/injection, schedule: Q01DX005 (ip), vehicle: saline with Tween-80): 102 % of control

SMILES: C[C@]12CC[C@H](O)CC1=CC[C@@H]1[C@@H]2CC[C@]2(C)c3nc4ccccc4cc3C[C@@H]12
- T/C (dose: 12.5 mg/kg/injection, schedule: Q01DX009 (ip), vehicle: saline with Tween-80): 104 % of control
- T/C (dose: 12.5 mg/kg/injection, schedule: Q04DX003 (ip), vehicle: saline with Tween-80): 100 % of control
- T/C (dose: 25.0 mg/kg/injection, schedule: Q01DX009 (ip), vehicle: saline with Tween-80): 100 % of control
- T/C [10]: 100 % of control
- T/C [11]: 95 % of control
- T/C [12]: 90 % of control

SMILES: [I][Pt+2][I].[NH-]C1CCCC1[NH-] (stereo unspecified)
- T/C [13]: 166 % of control

SMILES: COc1ccc2c(c1)CCc1c-2n[nH]c1-c1[nH]nc2c1CCc1cc(OC)ccc1-2
- T/C (dose: 60.0 mg/kg/injection, schedule: Q01DX005 (ip), vehicle: Klucel (hydroxypropylcellulose) (HPC)): 93 % of control
- T/C (dose: 120.0 mg/kg/injection, schedule: Q01DX005 (ip), vehicle: Klucel (hydroxypropylcellulose) (HPC)): 93 % of control
- T/C (dose: 240.0 mg/kg/injection, schedule: Q01DX005 (ip), vehicle: Klucel (hydroxypropylcellulose) (HPC)): 94 % of control

SMILES: Clc1ccc(C2=NON(c3ncccn3)C3N=CC=CN23)cc1 (stereo unspecified)
- T/C [5]: 87 % of control
- T/C [6]: 91 % of control
- T/C [7]: 99 % of control

SMILES: COC(=O)c1cc(OC)nc(OC)n1
- T/C (dose: 12.5 mg/kg/injection, schedule: Q01DX009 (ip), vehicle: distilled water + Tween-80): 108 % of control
- T/C (dose: 25.0 mg/kg/injection, schedule: Q01DX009 (ip), vehicle: distilled water + Tween-80): 96 % of control
- T/C (dose: 50.0 mg/kg/injection, schedule: Q01DX009 (ip), vehicle: distilled water + Tween-80): 105 % of control
- T/C (dose: 100.0 mg/kg/injection, schedule: Q01DX009 (ip), vehicle: distilled water + Tween-80): 99 % of control

SMILES: NC(=S)c1ccc(N=Cc2c(O)ccc3ccccc23)cc1
- T/C (dose: 50.0 mg/kg/injection, schedule: Q01DX001 (ip), vehicle: Klucel (hydroxypropylcellulose) (HPC)): 100 % of control
- T/C (dose: 100.0 mg/kg/injection, schedule: Q01DX001 (ip), vehicle: Klucel (hydroxypropylcellulose) (HPC)): 94 % of control
- T/C (dose: 200.0 mg/kg/injection, schedule: Q01DX001 (ip), vehicle: Klucel (hydroxypropylcellulose) (HPC)): 97 % of control

SMILES: O=C1CCCCC1C(O)c1c(Cl)cccc1Cl (stereo unspecified)
- T/C [11]: 99 % of control
- T/C [14]: 99 % of control
- T/C [15]: 100 % of control

SMILES: CCC1CN2CCC1CC2C(O)c1ccnc2ccc(OC)cc12 (stereo unspecified)
- T/C [8]: 100 % of control
- T/C [9]: 98 % of control

SMILES: N#CC1C(=O)NC(=O)C(C#N)C1c1cccc(O)c1 (stereo unspecified)
- T/C [16]: 96 % of control
- T/C [17]: 101 % of control
- T/C [18]: 97 % of control

SMILES: O=S(=O)(Nc1ccc(O)cc1)c1ccccc1
- T/C [10]: 110 % of control
- T/C [12]: 100 % of control
- T/C [14]: 108 % of control
- T/C [19]: 107 % of control
- T/C [15]: 100 % of control
- T/C (dose: 200.0 mg/kg/injection, schedule: Q04DX003 (ip), vehicle: saline with Tween-80): 100 % of control
- T/C (dose: 400.0 mg/kg/injection, schedule: Q01DX009 (ip), vehicle: saline with Tween-80): 87 % of control
- T/C (dose: 400.0 mg/kg/injection, schedule: Q04DX003 (ip), vehicle: saline with Tween-80): 100 % of control

SMILES: CC(C)(C)c1cc(C(=O)[O-])c([OH2+])c(C(C)(C)C)c1.CC(C)(C)c1cc(C(=O)[O-])c([OH2+])c(C(C)(C)C)c1.[Mn+2]
- T/C [5]: 106 % of control and 111 % of control
- T/C [6]: 105 % of control and 121 % of control

SMILES: CCOC(=O)/C(=C\Nc1cccc(OCc2ccccc2)c1)NC(=O)c1ccccc1
- T/C [16]: 87 % of control
- T/C [17]: 88 % of control
- T/C [18]: 86 % of control and 96 % of control
- T/C (dose: 400.0 mg/kg/injection, schedule: Q01DX009 (ip), vehicle: Klucel (hydroxypropylcellulose) (HPC)): 97 % of control

SMILES: CN(C)c1ccc(N(C)C)c(C(O)(c2ccccc2)c2ccccc2)c1
- T/C [11]: 88 % of control

SMILES: Brc1ccc(Nc2c3ccccc3nc3ccccc23)cc1
- T/C [12]: 95 % of control
- T/C [19]: 100 % of control

SMILES: CCCCCCCCC(O)C#CC(O)CCCCCCCC (stereo unspecified)
- T/C (dose: 12.5 mg/kg/injection, schedule: Q01DX005 (ip), vehicle: saline with Tween-80): 92 % of control
- T/C (dose: 25.0 mg/kg/injection, schedule: Q01DX005 (ip), vehicle: saline with Tween-80): 90 % of control
- T/C [8]: 101 % of control and 91 % of control
- T/C [9]: 100 % of control

SMILES: COCOCC(N)CS(C)=O (stereo unspecified)
- T/C [20]: 105 % of control
- T/C [21]: 97 % of control
- T/C [22]: 102 % of control

SMILES: Cn1c(=O)c2c(nc(N3CCN(CCO)CC3)n2CC(O)CCl)n(C)c1=O (stereo unspecified)
- T/C [20]: 100 % of control
- T/C [21]: 99 % of control
- T/C [22]: 99 % of control

SMILES: c1ccc(CSC2=NCCCC2)cc1
- T/C [13]: 98 % of control
- T/C (dose: 200.0 mg/kg/injection, schedule: Q04DX002 (ip), vehicle: saline with Tween-80): 105 % of control
- T/C (dose: 400.0 mg/kg/injection, schedule: Q04DX002 (ip), vehicle: saline with Tween-80): 100 % of control

SMILES: C=C1OC(C)=C(C(=O)OC(C)(C)C)C1C (stereo unspecified)
- T/C [2]: 106 % of control
- T/C [3]: 102 % of control
- T/C [4]: 105 % of control

SMILES: O=S(=O)(O)O.[N-]=C(N)/N=C(\[NH-])N.[N-]=C(N)/N=C(\[NH-])N.[N-]=C(N)NC(=[N-])N.[Rh+3]
- T/C (dose: 12.5 mg/kg/injection, schedule: Q01DX009 (ip), vehicle: saline): 100 % of control
- T/C (dose: 25.0 mg/kg/injection, schedule: Q01DX009 (ip), vehicle: saline): 103 % of control
- T/C (dose: 50.0 mg/kg/injection, schedule: Q01DX009 (ip), vehicle: saline): 107 % of control
